In data set [1] the test system is Escherichia coli. Kind of data set: Antibacterial activity against Escherichia coli TOP10 harboring beta-lactamase KPC-2 by agar dilution method. The data set is classed as functional. In general terms: Agar dilution tests growth on a series of plates holding different concentrations.
Data set [2] has as its system Escherichia coli. Kind of data set: Antibacterial activity against Escherichia coli TOP10 harboring beta-lactamase KPC-4 by agar dilution method. The data set is classed as functional.
For data set [3], the system named is Enterobacter cancerogenus. Kind of data set: Antibacterial activity against Enterobacter cancerogenus E624 harboring beta-lactamase KPC-4 by agar dilution method. The data set is classed as functional.
For data set [4], the system named is Escherichia coli. Kind of data set: Antibacterial activity against Escherichia coli TOP10 by agar dilution method. The data set is classed as functional.
The subject of data set [5] is Escherichia coli. Kind of data set: Metabolic stability in Escherichia coli TOP10 harboring beta-lactamase KPC-2 assessed as hydrolysis rate per mg of extracts at 100 uM after 5 mins by spectrophotometric analysis in presence of clavulanic acid. The data set is classed as ADME, organism-based. Conditions: in vivo.
Data set [6] deals with Escherichia coli. Description: Metabolic stability in Escherichia coli TOP10 harboring beta-lactamase KPC-5 assessed as hydrolysis rate per mg of extracts at 100 uM after 5 mins by spectrophotometric analysis in presence of clavulanic acid. The data set is classed as ADME, organism-based. Conditions: in vivo.
Data set [7] concerns Escherichia coli. Kind of data set: Metabolic stability in Escherichia coli TOP10 harboring beta-lactamase KPC-5 assessed as hydrolysis rate per mg of extracts at 100 uM after 5 mins by spectrophotometric analysis. Conditions: in vivo. The data set is classed as ADME, organism-based.
Data set [8] concerns Escherichia coli. Kind of data set: Metabolic stability in Escherichia coli TOP10 harboring beta-lactamase KPC-4 assessed as hydrolysis rate per mg of extracts at 100 uM after 5 mins by spectrophotometric analysis in presence of clavulanic acid. The data set is classed as ADME, organism-based. Conditions: in vivo.
Data set [9] concerns Escherichia coli. Kind of data set: Metabolic stability in Escherichia coli TOP10 harboring beta-lactamase KPC-2 assessed as hydrolysis rate per mg of extracts at 100 uM after 5 mins by spectrophotometric analysis. The data set is classed as ADME, organism-based. Conditions: in vivo.
In data set [10] the test system is Escherichia coli. Description: Antibacterial activity against Escherichia coli TOP10 harboring beta-lactamase KPC-5 by agar dilution method. The data set is classed as functional.
Data set [11] concerns Escherichia coli. Description: Metabolic stability in Escherichia coli TOP10 harboring beta-lactamase KPC-4 assessed as hydrolysis rate per mg of extracts at 100 uM after 5 mins by spectrophotometric analysis. The settings on record: in vivo. The data set is classed as ADME, organism-based.
The subject of data set [12] is Escherichia coli. Description: Metabolic stability in Escherichia coli TOP10 harboring beta-lactamase KPC-2 assessed as hydrolysis rate per mg of extracts at 50 uM after 5 mins by spectrophotometric analysis. The data set is classed as ADME, organism-based. Conditions: in vivo.
In data set [13] the test system is Escherichia coli. Description: Metabolic stability in Escherichia coli TOP10 harboring beta-lactamase KPC-5 assessed as hydrolysis rate per mg of extracts at 50 uM after 5 mins by spectrophotometric analysis. The data set is classed as ADME, organism-based. Conditions: in vivo.
Data set [14] deals with Escherichia coli. Kind of data set: Ratio of MIC for Escherichia coli TOP10 harboring beta-lactamase KPC-2 to MIC for Escherichia coli TOP10 harboring beta-lactamase KPC-4. The data set is classed as functional.
The subject of data set [15] is Pseudomonas aeruginosa. Kind of data set: Antibacterial activity against Pseudomonas aeruginosa PR100 harboring beta-lactamase KPC-2 by agar dilution method. The data set is classed as functional.
Data set [16] concerns Pseudomonas aeruginosa. Kind of data set: Antibacterial activity against Pseudomonas aeruginosa PR280 harboring beta-lactamase KPC-5 by agar dilution method. The data set is classed as functional.
Data set [17] relates to Escherichia coli. Kind of data set: Metabolic stability in Escherichia coli TOP10 harboring beta-lactamase KPC-4 assessed as hydrolysis rate per mg of extracts at 50 uM after 5 mins by spectrophotometric analysis. The settings on record: in vivo. The data set is classed as ADME, organism-based.
Data set [18] concerns Escherichia coli. Kind of data set: Antibacterial activity against Escherichia coli TOP10 harboring beta-lactamase KPC-4 by agar dilution method in presence of clavulanic acid. The data set is classed as functional.
Data set [19] has as its system Escherichia coli. Kind of data set: Antibacterial activity against Escherichia coli TOP10 harboring beta-lactamase KPC-5 by agar dilution method in presence of clavulanic acid.
For data set [20], the system named is Escherichia coli. Kind of data set: Antibacterial activity against Escherichia coli TOP10 harboring beta-lactamase KPC-2 by agar dilution method in presence of clavulanic acid. The data set is classed as functional.
Data set [21] deals with Escherichia coli. Kind of data set: Antibacterial activity against Escherichia coli TOP10 by agar dilution method in presence of clavulanic acid.
In data set [22] the test system is Enterobacter cancerogenus. Kind of data set: Antibacterial activity against Enterobacter cancerogenus E624 harboring beta-lactamase KPC-4 by agar dilution method in presence of Tazobactam. The data set is classed as functional.
Data set [23] has as its system Pseudomonas aeruginosa. Kind of data set: Antibacterial activity against Pseudomonas aeruginosa PR280 harboring beta-lactamase KPC-5 by agar dilution method in presence of Tazobactam. The data set is classed as functional.
Data set [24] concerns Pseudomonas aeruginosa. Kind of data set: Antibacterial activity against Pseudomonas aeruginosa PR100 harboring beta-lactamase KPC-2 by agar dilution method in presence of Tazobactam. The data set is classed as functional.
Data set [25] concerns Escherichia coli. Description: Antibacterial activity against Escherichia coli TOP10 by agar dilution method in presence of Tazobactam. The data set is classed as functional.
The test system of data set [26] is Escherichia coli. Kind of data set: Antibacterial activity against Escherichia coli TOP10 harboring beta-lactamase KPC-2 by agar dilution method in presence of Tazobactam. The data set is classed as functional.
The test system of data set [27] is Escherichia coli. Description: Antibacterial activity against Escherichia coli TOP10 harboring beta-lactamase KPC-4 by agar dilution method in presence of Tazobactam. The data set is classed as functional.
The subject of data set [28] is Escherichia coli. Description: Antibacterial activity against Escherichia coli TOP10 harboring beta-lactamase KPC-5 by agar dilution method in presence of Tazobactam. The data set is classed as functional.
The test system of data set [29] is Escherichia coli. Kind of data set: Ratio of MIC for Escherichia coli TOP10 harboring beta-lactamase KPC-2 to MIC for Escherichia coli TOP10 harboring beta-lactamase KPC-5. The data set is classed as functional.

≈ marks a conversion by molar mass, not a printed value.

Turning to `CO/N=C(\C(=O)N[C@@H]1C(=O)N2C(C(=O)[O-])=C(C[N+]3(C)CCCC3)CS[C@H]12)c1csc(N)n1`, the MIC in data set [1] is 16 µg/mL (≈ 33.3 µM); in [2], 8 µg/mL (≈ 16.6 µM); in data set [3], 64 µg/mL (≈ 133 µM); in [4] it was less than 0.06 µg/mL.

Consider `CO/N=C(\C(=O)N[C@@H]1C(=O)N2C(C(=O)O)=C(COC(C)=O)CS[C@H]12)c1csc(N)n1` [CEFOTAXIME], for which the Stability was found to be 487 nmol/min in [5]; 48 nmol/min in data set [6]; 368 nmol/min in data set [7]; 20 nmol/min in data set [8]; 1310 nmol/min in [9]; 172 nmol/min in [11]. The MIC in [1] was 64 µg/mL (≈ 141 µM); in [2], 64 µg/mL (≈ 141 µM); in data set [3], more than 64 µg/mL; in data set [4], less than 0.06 µg/mL; in [10] it was 64 µg/mL (≈ 141 µM).

With `C[C@@H](O)[C@H]1C(=O)N2C(C(=O)O)=C(S[C@@H]3CN[C@H](C(=O)Nc4cccc(C(=O)O)c4)C3)[C@H](C)[C@H]12`, the MIC in [1] is 16 µg/mL (≈ 33.6 µM); in data set [2], 2 µg/mL (≈ 4.21 µM); in data set [3], more than 16 µg/mL; in [4] it was less than 0.06 µg/mL; in [10], 8 µg/mL (≈ 16.8 µM).

In the case of `CC(C)(O/N=C(\C(=O)N[C@@H]1C(=O)N2C(C(=O)[O-])=C(C[n+]3ccccc3)CS[C@H]12)c1csc(N)n1)C(=O)O` [CEFTAZIDIME], the values for the Stability in [12], in data set [13] and in data set [17] were 3 nmol/min, 6 nmol/min and 7 nmol/min, respectively. Besides, the MIC in data set [1] was 32 µg/mL (≈ 58.5 µM); in data set [2] it was more than 128 µg/mL; in data set [15] it was 64 µg/mL (≈ 117 µM); in [16], 128 µg/mL (≈ 234 µM); in data set [3], more than 64 µg/mL; in data set [4], 0.12 µg/mL (≈ 0.22 µM). Also, the MIC in data set [10] was 128 µg/mL (≈ 234 µM). In data set [14], the Ratio was 8.

For `C[C@@H](O)[C@H]1C(=O)N2C(C(=O)O)=C(SCCN=CN)C[C@H]12` [IMIPENEM ANHYDROUS], the Stability in data set [7] was 116 nmol/min; in data set [9], 412 nmol/min; in [11], 69 nmol/min. The MIC in data set [18] was less than 0.06 µg/mL; in data set [1], 16 µg/mL (≈ 53.4 µM); in data set [2], 2 µg/mL (≈ 6.68 µM); in [19], 0.12 µg/mL; in [20] it was 4 µg/mL; in [15] it was more than 64 µg/mL. Moreover, the MIC was 0.12 µg/mL in [21]; more than 64 µg/mL in [16]; more than 32 µg/mL in [3]; 0.12 µg/mL (≈ 0.401 µM) in data set [4]; 4 µg/mL (≈ 13.4 µM) in data set [10].

For `CCN1CCN(C(=O)N[C@@H](C(=O)N[C@@H]2C(=O)N3[C@@H]2SC(C)(C)[C@@H]3C(=O)O)c2ccccc2)C(=O)C1=O` [PIPERACILLIN], the MIC in data set [22] was more than 64 µg/mL; in data set [23], 128 µg/mL; in data set [24], more than 256 µg/mL; in data set [25], 1 µg/mL; in data set [26] it was more than 256 µg/mL; in [27], 128 µg/mL. In addition, in [28], the MIC was more than 256 µg/mL.

For `C[C@H]1[C@H](NC(=O)/C(=N\OC(C)(C)C(=O)O)c2csc(N)n2)C(=O)N1S(=O)(=O)O` [AZTREONAM], the MIC was more than 128 µg/mL in data set [1]; more than 128 µg/mL in data set [2]; more than 64 µg/mL in data set [3]; less than 0.12 µg/mL in data set [4]; more than 128 µg/mL in data set [10].

Take `CO[C@@]1(NC(=O)Cc2cccs2)C(=O)N2C(C(=O)O)=C(COC(N)=O)CS[C@@H]21` [CEFOXITIN]: the MIC in data set [1] is 32 µg/mL (≈ 74.9 µM); in data set [2], 8 µg/mL (≈ 18.7 µM); in [3] it was more than 64 µg/mL; in [4], 4 µg/mL (≈ 9.36 µM); in data set [10] it was 16 µg/mL (≈ 37.4 µM). Also, the Ratio in [29] was 2; in data set [14], 4.

Take `CC(=O)OCC1=C(C(=O)O)N2C(=O)[C@@H](NC(=O)Cc3cccs3)[C@H]2SC1` [CEPHALOTHIN]: the Stability in data set [5] is reported as 25 nmol/min; in data set [6], 7 nmol/min; in data set [7] it was 50 nmol/min; in [8], 6 nmol/min; in [9], 65 nmol/min; in [11], 53 nmol/min.

As to `C[C@@H](O)[C@H]1C(=O)N2C(C(=O)O)=C(S[C@@H]3CN[C@H](C(=O)N(C)C)C3)[C@H](C)[C@H]12` [MEROPENEM], the MIC was 8 µg/mL (≈ 20.9 µM) in data set [1], 1 µg/mL (≈ 2.61 µM) in [2], more than 32 µg/mL in data set [3] and less than 0.06 µg/mL in data set [4].

Source of the values: ChEMBL document CHEMBL1629609, “Phenotypic and enzymatic comparative analysis of the novel KPC variant KPC-5 and its evolutionary variants, KPC-2 and KPC-4” (Antimicrob Agents Chemother, 2009).
